Reference: patent publication US8518876B2, “Composition for long-acting peptide analogs” (Pharmaln Corporation, priority 2007, dated 2013)
Where a SMILES comes first, the peptide text is derived from it. Bridges are numbered along the chain shown (N, C = ends). [ ]: non-standard residue; d: D form. The star is where a group is joined. ξ: configuration not given here. Lauroyl = CCCCCCCCCCCC(=O)*; Octanoyl = CCCCCCCC(=O)*; ξLac = CC(O)C(=O)O

Tests used:
[1] = tested on: human umbilical chord artery endothelial cells (HUAEC); experiment: Ca-influx after vasopressin analog stimulation of HUAEC, samples pre-incubated in human serum; format: cell-based; design: key to Activity of Various Vasopressin Analogs, 0 h / Activity of Various Vasopressin Analogs, 1 h / Activity of Various Vasopressin Analogs, 2 h / Activity of Various Vasopressin Analogs, 4 h: “−” for no detectable activity; “+” to “+++” for slight to high activity; “+” to “+++” for slight to high activity; “+” to “+++” for slight to high activity; conditions: for Activity of Various Vasopressin Analogs, 0 h: 0 h pre-incubation in pooled human serum at 37° C. (serum present); for Activity of Various Vasopressin Analogs, 0 h / Activity of Various Vasopressin Analogs, 1 h / Activity of Various Vasopressin Analogs, 2 h / Activity of Various Vasopressin Analogs, 4 h: Ca-influx in HUAEC, 50 nM per well; for Activity of Various Vasopressin Analogs, 1 h: 1 h pre-incubation in pooled human serum at 37° C.; for Activity of Various Vasopressin Analogs, 2 h: 2 h pre-incubation in pooled human serum at 37° C.; for Activity of Various Vasopressin Analogs, 4 h: 4 h pre-incubation in pooled human serum at 37° C.; for course of activity on incubation in human serum: in words
Description: Ca-influx after vasopressin analog stimulation of human umbilical chord artery endothelial cells (HUAEC) was used to test the biological activity of the various vasopressin analogs. The material used were: 75 cm^2 tissue culture flasks, BD Bioscience, Bedford Mass. (catalogue number 137787) with 0.2 μm vented blue plug seal caps (catalogue number 353136); human umbilical artery endothelial cells (HUAEC), Lonza, Walkersville, Md. (catalogue number CC-2520); EGM-2 fully supplement medium, Lonza, Walkersville, Md. (catalogue number CC-3162); Fura-2 AM, Invitrogen/Molecular Probes, Carlsbad, Calif. (catalogue number F-1221) (Fura-2 AM is a high affinity, intracellular calcium indicator that is ratiometric and UV light-excitable; the acetoxymethyl (AM) ester form is useful for noninvasive intracellular loading as it is cell permeable. Once inside the cell the ester is clipped which renders the Fura-2 molecule cell impermeable and therefore trapped inside.); terlipressin derivatives custom made by Anaspec, San Jose Calif., according to inventors specifications; pooled human serum, Sigma, St. Louis, Mo. (catalogue number H4522); phosphate buffered saline (PBS), Fisher Scientific, Fair Lawn, N.J. (catalogue number BP399-500); trypsin-EDTA solution, 0.25%, Invitrogen/Gibco, Carlsbad, Calif. (catalogue number 25200-072); heat inactivated fetal bovine serum (FBS), Invitrogen/Gibco, Carlsbad, Calif. (catalogue number 10438-026); black polystyrene 96 well flat-bottom assay plates, Corning Inc., Corning, N.Y. (catalogue number 3916); Chameleon plate multilabel detection reader, Hidex, Turku, Finland, distributed by Bioscan, Washington, D.C.; dimethyl sulfoxide (DMSO), Fisher Scientific, Fair Lawn, N.J. (catalogue number D-136-1).
The methods used for tissue or cell culture are as follows: a vial of HUAEC (>0.5×10^6 cells) was thawed and seeded in two 75 cm^2 flasks with 15 ml EGM-2 medium each. Cells were grown over night and medium was changed. Media in the flasks were changed on a Monday, Wednesday, Friday schedule. Cells were split at approximately 80% confluency (using trypsin). Media were removed and the flasks were washed with 10 ml 1×PBS. The PBS was removed, 1.5 ml trypsin-EDTA solution was added and incubated for 5 min at 37° C. Three ml of FBS added and the cells were counted. The cells were centrifuged at 200×G for 5 min, resuspended in EGM-2 medium and distributed into new 75 cm2 flasks @ 3000-5000 cells per cm2.
To prepare for the Ca2+-influx assay, cells were distributed into one black 96 well plate @ 10^5 cells/well. Cells were allowed to adhere overnight and the medium was then removed. Fifty μg Fura-2 was dissolved in 50 μl DMSO and added to 10 ml PBS/2% FBS. The cells were stained with 20 μl of 5 μg/ml Fura-2 in PBS/2% FBS for 2 h, then 180 μl EGM-2 medium supplemented with CaCl2 and glucose was added (10 mM CaCl2 and 11.1 mM glucose final concentrations).
To prepare analogs for testing, 50 uM terlipressin (or derivative) stock solution in DMSO was prepared. […] (placed on ice after incubation).
To measure Ca-influx, Fura-2 fluorescence was measured for 4 repetitions per well at 340 nm ex/510 nm em and 420 nm ex/510 nm em (4 measurement before and 16 after injection of drug. At t=12 sec, 20 μl of terlipressin or derivative was injected as a 500 nM solution (or serum) for a final concentration of 50 nM per well. Fura-2 fluorescence was measured for […] per well at 340 nm ex/510 nm em and 420 nm ex/510 nm em (4 measurements before and 16 after injection of drug). The controls included injected human serum alone, and terlipressin or derivative dissolved in PBS as […]. All measurements were done in hexuplicate.
Data analysis was done using Graphpad Prism version 5.0 software (Graphpad software Inc, San Diego, Calif.). […]

[2] = Solubility in water of the synthesized peptide; format: physicochemical; conditions: in words
[3] = cited from earlier work
[4] = tested on: rat ear model; experiment: Rat ear model, maintenance of vasoconstriction (paleness of ears) after subcutaneous injection; format: in vivo; conditions: for loss of paleness after: subcutaneous injection, ears examined after 6 and 24 h
Description: Using a rat ear model, a vasopressin analog with metal binding moiety of the present invention, His6Ter (“His6” disclosed as SEQ ID NO: 52), was evaluated for it ability to maintain vasoconstriction for an extended period of time. The analog was formulated at a 2% load in polymeric carrier containing 40PLPEG537-Zn-chelate. The peptide analog-polymeric complex was injected subcutaneously into the back of one set of rats, while terlipressin alone was also injected similarly in another set of rats. The ears were examined at baseline and at intervals up to 48 h.
Using the same model, the effects of delayed release of biologically-active lysine vasopressin from the peptide analog His6Ter (“His6” disclosed as SEQ ID NO: 52), with or without complexing in polymeric carrier, was tested. In the experiment, terlipressin was conjugated with a his tag metal binding moiety to result in the His6Ter peptide analog (“His6” disclosed as SEQ ID NO: 52). A portion of the His6Ter analog (“His6” disclosed as SEQ ID NO: 52) was formulated at 2% loading in 40PLPEG537-Zn-chelate. The three test materials were injected subcutaneously into groups of rats and the ears were examined after 6 and 24 h.

| solubility in water [2] | Compound | Activity of Various Vasopressin Analogs, 0 h [1] | Activity of Various Vasopressin Analogs, 1 h [1] | Activity of Various Vasopressin Analogs, 2 h [1] | Activity of Various Vasopressin Analogs, 4 h [1] | further results |
| --- | --- | --- | --- | --- | --- | --- |
| limited solubility in water | CCCCCCCCCCCC(=O)OC(C)C(=O)NCC(=O)NCC(=O)NCC(=O)N[C@H]1CSSC[C@@H](C(=O)N2CCC[C@H]2C(=O)N[C@@H](CCCCN)C(=O)NCC(N)=O)NC(=O)[C@H](CC(N)=O)NC(=O)[C@H](CCC(N)=O)NC(=O)[C@H](Cc2ccccc2)NC(=O)[C@H](Cc2ccc(O)cc2)NC1=O (stereo partly drawn) [C12TerE, CH3(CH2)10CO—OHC(CH3)CO-Gly-Gly-Gly-Cys-Tyr-Phe-Gln-Asn-Cys-Pro-Lys-Gly-NH2] (Lauroyl-[ξLac]GGGCYFQNCPKG-NH2; disulfide 5-10) | +++ | + | − | − |  |
|  | NC(=O)CC[C@@H]1NC(=O)[C@H](Cc2ccccc2)NC(=O)[C@H](Cc2ccc(O)cc2)NC(=O)[C@@H](N)CSSC[C@@H](C(=O)N2CCC[C@H]2C(=O)N[C@@H](CCCN=C(N)N)C(=O)NCC(N)=O)NC(=O)[C@H](CC(N)=O)NC1=O [vasopressin] |  |  |  |  | half-life [3]: 24 min |
| water soluble | CCCCCCCC(=O)OC(C)C(=O)NCC(=O)NCC(=O)NCC(=O)N[C@H]1CSSC[C@@H](C(=O)N2CCC[C@H]2C(=O)N[C@@H](CCCCN)C(=O)NCC(N)=O)NC(=O)[C@H](CC(N)=O)NC(=O)[C@H](CCC(N)=O)NC(=O)[C@H](Cc2ccccc2)NC(=O)[C@H](Cc2ccc(O)cc2)NC1=O (stereo partly drawn) [C8TerE, CH3(CH2)6CO—OHC(CH3)CO-Gly-Gly-Gly-Cys-Tyr-Phe-Gln-Asn-Cys-Pro-Lys-Gly-NH2] (Octanoyl-[ξLac]GGGCYFQNCPKG-NH2; disulfide 5-10) |  |  |  |  |  |
| water soluble | CCCCCCCC(=O)NCC(=O)NCC(=O)NCC(=O)N[C@H]1CSSC[C@@H](C(=O)N2CCC[C@H]2C(=O)N[C@@H](CCCCN)C(=O)NCC(N)=O)NC(=O)[C@H](CC(N)=O)NC(=O)[C@H](CCC(N)=O)NC(=O)[C@H](Cc2ccccc2)NC(=O)[C@H](Cc2ccc(O)cc2)NC1=O [C8TerA, CH3(CH2)6CO-Gly-Gly-Gly-Cys-Tyr-Phe-Gln-Asn-Cys-Pro-Lys-Gly-NH2] (Octanoyl-GGGCYFQNCPKG-NH2; disulfide 4-9) | +++ | +++ | +++ | +++ |  |
| water soluble | N=C(N)NCCC[C@H](NC(=O)[C@@H]1CCCN1C(=O)[C@@H]1CSSC[C@H](NC(=O)CNC(=O)CNC(=O)CNC(=O)[C@H](Cc2c[nH]cn2)NC(=O)[C@H](Cc2c[nH]cn2)NC(=O)[C@H](Cc2c[nH]cn2)NC(=O)[C@H](Cc2c[nH]cn2)NC(=O)[C@H](Cc2c[nH]cn2)NC(=O)[C@@H](N)Cc2c[nH]cn2)C(=O)N[C@@H](Cc2ccc(O)cc2)C(=O)N[C@@H](Cc2ccccc2)C(=O)N[C@@H](CCC(N)=O)C(=O)N[C@@H](CC(N)=O)C(=O)N1)C(=O)NCC(N)=O [His6Vas, His-His-His-His-His-His-Gly-Gly-Gly-Cys-Tyr-Phe-Gln-Asn-Cys-Pro-Arg-Gly-NH2] (H-HHHHHHGGGCYFQNCPRG-NH2; disulfide 10-15) |  |  |  |  |  |
|  | NCCCC[C@H](NC(=O)[C@@H]1CCCN1C(=O)[C@@H]1CSSC[C@H](NC(=O)CNC(=O)CNC(=O)CN)C(=O)N[C@@H](Cc2ccc(O)cc2)C(=O)N[C@@H](Cc2ccccc2)C(=O)N[C@@H](CCC(N)=O)C(=O)N[C@@H](CC(N)=O)C(=O)N1)C(=O)NCC(N)=O [Terlipressin, reference compound] (H-GGGCYFQNCPKG-NH2; disulfide 4-9) | +++ | + | − | − | course of activity on incubation in human serum [1]: loses its activity quickly; course of activity on incubation in human serum ([1]; listed as terlipressin): losses activity immediately afterwards; ear colour at 6 h ([4]; subcutaneous injection into the back, 6 h): pale; ear colour at 24 h ([4]; subcutaneous injection into the back, 24 h): returned to a baseline color; loss of paleness after [4]: 6 h |
| water soluble | N=C(N)NCCC[C@H](NC(=O)[C@@H]1CCCN1C(=O)[C@@H]1CSSC[C@H](NC(=O)CNC(=O)CNC(=O)CNC(=O)[C@H](Cc2c[nH]cn2)NC(=O)[C@H](Cc2c[nH]cn2)NC(=O)[C@@H](N)Cc2c[nH]cn2)C(=O)N[C@@H](Cc2ccc(O)cc2)C(=O)N[C@@H](Cc2ccccc2)C(=O)N[C@@H](CCC(N)=O)C(=O)N[C@@H](CC(N)=O)C(=O)N1)C(=O)NCC(N)=O [His3Vas, His-His-His-Gly-Gly-Gly-Cys-Tyr-Phe-Gln-Asn-Cys-Pro-Arg-Gly-NH2] (H-HHHGGGCYFQNCPRG-NH2; disulfide 7-12) |  |  |  |  |  |
| water soluble | NCCCC[C@H](NC(=O)[C@@H]1CCCN1C(=O)[C@@H]1CSSC[C@H](NC(=O)CNC(=O)CNC(=O)CNC(=O)[C@H](Cc2c[nH]cn2)NC(=O)[C@H](Cc2c[nH]cn2)NC(=O)[C@@H](N)Cc2c[nH]cn2)C(=O)N[C@@H](Cc2ccc(O)cc2)C(=O)N[C@@H](Cc2ccccc2)C(=O)N[C@@H](CCC(N)=O)C(=O)N[C@@H](CC(N)=O)C(=O)N1)C(=O)NCC(N)=O [His3Ter, His-His-His-Gly-Gly-Gly-Cys-Tyr-Phe-Gln-Asn-Cys-Pro-Lys-Gly-NH2] (H-HHHGGGCYFQNCPKG-NH2; disulfide 7-12) |  |  |  |  |  |
| water soluble | NCCCC[C@H](NC(=O)[C@@H]1CCCN1C(=O)[C@@H]1CSSC[C@H](NC(=O)CNC(=O)CNC(=O)CNC(=O)[C@H](Cc2c[nH]cn2)NC(=O)[C@H](Cc2c[nH]cn2)NC(=O)[C@H](Cc2c[nH]cn2)NC(=O)[C@H](Cc2c[nH]cn2)NC(=O)[C@H](Cc2c[nH]cn2)NC(=O)[C@@H](N)Cc2c[nH]cn2)C(=O)N[C@@H](Cc2ccc(O)cc2)C(=O)N[C@@H](Cc2ccccc2)C(=O)N[C@@H](CCC(N)=O)C(=O)N[C@@H](CC(N)=O)C(=O)N1)C(=O)NCC(N)=O [His6Ter, His-His-His-His-His-His-Gly-Gly-Gly-Cys-Tyr-Phe-Gln-Asn-Cys-Pro-Lys-Gly-NH2] (H-HHHHHHGGGCYFQNCPKG-NH2; disulfide 10-15) |  |  |  |  | loss of paleness after [4]: 6 h |
